Measured values from patent publication US20230373972A1, “PIPERAZINE DERIVATIVE, PREPARATION METHOD THEREFOR AND USE THEREOF” (Zhejiang Hisun Pharmaceutical Co., Ltd., priority 2020, published 2023).

Key:
[1] = target: T1, Native human Factor XIa protease (Homo sapiens, UniProt P03951); experiment: Inhibition of activity of Factor XIa protease (chromogenic substrate S-2366); assay type: biochemical; conditions: S-2366 1 mM, 37° C. 10 minutes, absorption at 405 nm
T1 construct: The Native human Factor XIa protease was purchased from Abcam; purchased Abcam ab62411
From the text: The following method was used to determine an inhibition degree of the compound of the present invention on an activity of Native human Factor XIa protease in vitro. In the method, a Factor XIa chromogenic substrate was used to test the inhibition degree on the activity of the Factor XIa protease. The Native human Factor XIa protease was purchased from Abcam (article number ab62411), and S-2366 was purchased from Chromogenix (article number 82109039). An experimental process was briefly described as follows: a test compound was dissolved in DMSO to prepare a 10 mM storage solution first, then the compound was diluted with a Factor XIa reaction buffer (100 mM Tris-HCl, 200 mM NaCl, 0.02% Tween 20, pH 7.4) by a quadruple gradient, and a final concentration of the test compound in a reaction system ranged from 10,000 nM to […]. The reaction was carried out in a 384-well microplate. 2 μL of the test compounds at different concentrations diluted with the reaction buffer were added to wells first, and 2 μL of 1% DMSO (a final concentration of DMSO in the reaction system was 0.1%) was used to replace blank and control wells. Subsequently, 8 μL of enzyme working solution (a final concentration of Factor XIa was […]) was added to each well, and 8 μL of Factor XIa reaction buffer was used to replace the blank well, centrifuged for 30 seconds, and incubated on ice for 5 minutes. Finally, 10 μL of substrate working solution (a final concentration of S-2366 was 1 mM) was added to each well, and centrifuged for 30 seconds, and the reaction was started. The solution was incubated at 37° C. for 10 minutes to determine a light absorption value at 405 nm. By comparing with a light absorption value of the control group (0.1% DMSO), a percentage inhibition rate of the compound at each concentration was calculated, and nonlinear regression analysis was carried out on value-inhibition rate with the concentration of the compound by GraphPad Prism 5 software, so as to obtain an IC50 value of the compound, as shown in Table 1.

[2] = system: human plasma; experiment: In-vitro anticoagulation on human plasma (APTT kit, coagulation time); conditions: concentration of the compound when the coagulation time (APTT) was prolonged twice
Protocol: The following method was used to determine the in-vitro anticoagulation of the compound of the present invention in the human plasma. In the method, an APTT kit of the MediRox company was used to test. The APTT kit was purchased from MediRox (article number MRX930), and the human plasma was prepared internally.
The preparation of the human plasma was briefly described as follows: human plasma was collected in a blood collection tube containing sodium citrate, and centrifuged at 3,000 rpm for 10 minutes at room temperature, and plasma was collected, and packaged separately and stored at −80° C.
An APTT test process was briefly described as follows: a test compound was dissolved in DMSO to prepare a 10 mM storage solution first, then the test compound was diluted with DMSO by a triple gradient, and a final concentration of the test compound in a reaction system ranged from 217 μM to 0.03 μM. 4 μL, of test compounds at different concentrations diluted with DMSO were added to a centrifuge tube containing 180 μL of plasma, and 4 μL of DMSO was added to a blank group, shaken and mixed evenly, and incubated at 37° C. for 5 minutes. Subsequently, an APTT reagent was placed in a reagent holder according to instrument requirements, the incubated plasma sample was placed in a detection position of a coagulation analyzer, and a coagulation time was determined and recorded (s). With a final concentration of the compound as an abscissa and Ratio (Ratio=TiT0, wherein T0 was a coagulation time of a blank control, and Ti was a coagulation time of a compound to be tested) as an ordinate, a coagulation dose-effect curve was drawn by Graph Pad Prisms, and a concentration of the compound when the coagulation time was prolonged twice was calculated, which was namely a CT2 value, as shown in Table 2.

T1 sequence (P03951 388-625 limits assumed): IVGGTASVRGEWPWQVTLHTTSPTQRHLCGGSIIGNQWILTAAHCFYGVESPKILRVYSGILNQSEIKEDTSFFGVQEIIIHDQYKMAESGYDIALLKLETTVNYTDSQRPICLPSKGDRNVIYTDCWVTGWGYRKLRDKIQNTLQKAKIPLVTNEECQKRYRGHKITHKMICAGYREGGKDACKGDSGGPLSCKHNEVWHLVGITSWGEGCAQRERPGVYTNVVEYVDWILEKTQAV
T1 sequence (P03951 19-387 partner limits assumed): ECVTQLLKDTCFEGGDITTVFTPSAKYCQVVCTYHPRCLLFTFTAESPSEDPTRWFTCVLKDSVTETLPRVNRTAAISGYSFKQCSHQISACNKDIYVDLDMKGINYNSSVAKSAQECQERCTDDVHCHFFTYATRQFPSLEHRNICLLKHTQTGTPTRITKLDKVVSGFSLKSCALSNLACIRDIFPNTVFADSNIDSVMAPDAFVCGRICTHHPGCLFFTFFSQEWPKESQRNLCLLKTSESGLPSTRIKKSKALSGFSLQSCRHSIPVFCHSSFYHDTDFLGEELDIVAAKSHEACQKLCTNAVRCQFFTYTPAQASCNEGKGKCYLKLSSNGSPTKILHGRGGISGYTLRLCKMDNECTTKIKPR

Row | SMILES | IC50 [1] [nM] | CT2 [2] [µM]
1 | O=C(Nc1ccn2nccc2c1)C(Cc1ccccc1)N1CC(=O)N(c2cc(Cl)ccc2-n2cc(Cl)nn2)CC1=O (stereo not drawn) [Example 40, 2-(4-(5-chloro-2-(4-chloro-1H-1,2,3-triazol-1-yl)phenyl)-2,5-dioxopiperazin-1-yl)-3-phenyl-N-(pyrazolo[1.5-a]pyridin-5-yl)propanamide] | 44.7 | –
2 | COCCC(C(=O)Nc1ccc2nn(C)cc2c1)N1CC(=O)N(c2cc(Cl)ccc2-n2cnnn2)CC1=O (stereo not drawn) [Example 32, 2-(4-(5-Chloro-2-(1H-tetrazol-1-yl)phenyl)-2,5-dioxopiperazin-1-yl)-4-methoxy-N-(2-methyl-2H-indazol-5-yl)butanamide] | – | 6.3
3 | Cn1cc2cc(NC(=O)C(CC3CCC3)N3CC(=O)N(c4cc(Cl)ccc4-n4cnnn4)CC3=O)ccc2n1 (stereo not drawn) [Example 39, 2-(4-(5-Chloro-2-(1H-tetrazol-1-yl)phenyl)-2,5-dioxopiperazin-1-yl)-3-cyclobutyl-N-(2-methyl-2H-indazol-5-yl)propanamide] | – | 12.7
4 | Cn1cc2cc(NC(=O)C(Cc3cccc(F)c3)N3CC(=O)N(c4cc(Cl)ccc4-n4cc(Cl)nn4)CC3=O)ccc2n1 (stereo not drawn) [Example 46, 2-(4-(5-Chloro-2-(4-chloro-1H-1,2,3-triazol-1-yl)phenyl)-2,5-dioxopiperazin-1-yl)-3-(3-fluorophenyl)-N-(2-methyl-2H-indazol-5-yl)propanamide] | – | 19.1
5 | Cn1cc2cc(NC(=O)C(Cc3ccn(C4CC4)n3)N3CC(=O)N(c4cc(Cl)ccc4-n4cc(Cl)nn4)CC3=O)ccc2n1 (stereo not drawn) [Example 123, 2-(4-(5-chloro-2-(4-chloro-1H-1,2,3-triazol-1-yl)phenyl)-2,5-dioxopiperazin-1-yl)-3-(1-cyclopropyl-1H-pyrazol-3-yl)-N-(2-methyl-2H-indazol-5-yl)propanamide] | – | 12.8
6 | NC(=O)c1ccc(NC(=O)C(Cc2ccc(F)cc2)N2CC(=O)N(c3cc(Cl)ccc3-n3cc(Cl)nn3)CC2=O)cc1F (stereo not drawn) [Example 135, 4-(2-(4-(5-chloro-2-(4-chloro-1H-1,2,3-triazol-1-yl)phenyl)-2,5-dioxopiperazin-1-yl)-3-(4-fluorophenyl)propanamido)-2-fluorobenzamide] | – | 19.2
7 | Cn1cc2cc(NC(=O)C(Cc3ccn(C(F)F)n3)N3CC(=O)N(c4cc(Cl)ccc4-n4cc(Cl)nn4)CC3=O)ccc2n1 (stereo not drawn) [Example 132, 2-(4-(5-chloro-2-(4-chloro-1H-1,2,3-triazol-1-yl)phenyl)-2,5-dioxopiperazin-1-yl)-3-(1-(difluoromethyl)-1H-pyrazol-3-yl)-N-(2-methyl-2H-indazol-5-yl)propanamide] | – | 12.7
8 | Cn1cc2cc(NC(=O)C(Cc3ccncc3)N3CC(=O)N(c4cc(Cl)ccc4-n4cc(Cl)nn4)CC3=O)ccc2n1 (stereo not drawn) [Example 105, 2-(4-(5-chloro-2-(4-chloro-1H-1,2,3-triazol-1-yl)phenyl)-2,5-dioxopiperazin-1-yl)-N-(2-methyl-2H-indazol-5-yl)-3-(pyridin-4-yl)propanamide] | – | 10.1
9 | O=C(Nc1ccc(N2CCCC2=O)cc1)C(Cc1ccccc1)N1CC(=O)N(c2cc(Cl)ccc2-n2cnnn2)CC1=O (stereo not drawn) [Example 10, 2-(4-(5-Chloro-2-(1H-tetrazol-1-yl)phenyl)-2,5-dioxopiperazin-1-yl)-N-(4-(2-oxopyrrolidin-1-yl)phenyl)-3-phenylpropanamide] | 43.9 | –
10 | Cn1cc2cc(NC(=O)C(CC3CCC3)N3CC(=O)N(c4cc(Cl)ccc4-n4cc(Cl)nn4)CC3=O)ccc2n1 (stereo not drawn) [Example 116, 2-(4-(5-chloro-2-(4-chloro-1H-1,2,3-triazol-1-yl)phenyl)-2,5-dioxopiperazin-1-yl)-3-cyclobutyl-N-(2-methyl-2H-indazol-5-yl)propanamide] | – | 14.0
11 | COC(=O)N1CCc2cc(NC(=O)C(Cc3ccccc3)N3CC(=O)N(c4cc(Cl)ccc4-n4cnnn4)CC3=O)ccc21 (stereo not drawn) [Example 8, Methyl 5-(2-(4-(5-chloro-2-(1H-tetrazol-1-yl)phenyl)-2,5-dioxopiperazin-1-yl)-3-phenylpropanamido)indoline-1-carboxylate] | 17.7 | –
12 | CCOC(=O)c1ccc(NC(=O)C(Cc2ccccc2)N2CC(=O)N(c3cc(Cl)ccc3-n3cnnn3)CC2=O)cc1 (stereo not drawn) [Example 4, Ethyl 4-(2-(4-(5-chloro-2-(1H-tetrazol-1-yl)phenyl)-2,5-dioxopiperazin-1-yl)-3-phenylpropanamido) benzoate] | 49.8 | –
13 | CNC(=O)c1ccc(NC(=O)C(Cc2ccccc2)N2CC(=O)N(c3cc(Cl)ccc3-n3cnnn3)CC2=O)cn1 (stereo not drawn) [Example 29, 5-(2-(4-(5-Chloro-2-(1H-tetrazol-1-yl)phenyl)-2,5-dioxopiperazin-1-yl)-3-phenylpropanamido)-N-methylpicolinamide] | – | 6.7
14 | Cn1cc2cc(NC(=O)C(CCOC(C)(C)C)N3CC(=O)N(c4cc(Cl)ccc4-n4cc(Cl)nn4)CC3=O)ccc2n1 (stereo not drawn) [Example 122, 4-(tert-butoxy)-2-(4-(5-chloro-2-(4-chloro-1H-1,2,3-triazol-1-yl)phenyl)-2,5-dioxopiperazin-1-yl)-N-(2-methyl-2H-indazol-5-yl)butanamide] | – | 18.7
15 | Cn1cc2cc(NC(=O)C(Cc3cccnc3)N3CC(=O)N(c4cc(Cl)ccc4-n4cc(Cl)nn4)CC3=O)ccc2n1 (stereo not drawn) [Example 43, 2-(4-(5-Chloro-2-(4-chloro-1H-1,2,3-triazol-1-yl)phenyl)-2,5-dioxopiperazin-1-yl)-N-(2-methyl-2H-indazol-5-yl)-3-(pyridin-3-yl)propanamide] | – | 19.6
16 | Cn1cc(CC(C(=O)Nc2ccc3nn(C)cc3c2)N2CC(=O)N(c3cc(Cl)ccc3-n3cc(Cl)nn3)CC2=O)cn1 (stereo not drawn) [Example 131, 2-(4-(5-chloro-2-(4-chloro-1H-1,2,3-triazol-1-yl)phenyl)-2,5-dioxopiperazin-1-yl)-3-(1-methyl-1H-pyrazol-4-yl)-N-(2-methyl-2H-indazol-5-yl)propanamide] | – | 11.5
17 | N#Cc1ccc(NC(=O)C(Cc2ccccc2)N2CC(=O)N(c3cc(Cl)ccc3-n3cnnn3)CC2=O)cc1 (stereo not drawn) [Example 16, 2-(4-(5-chloro-2-(1H-tetrazol-1-yl)phenyl)-2,5-dioxopiperazin-1-yl)-N-(4-cyanophenyl)-3-phenylpropanamide] | – | 15.6
18 | CNC(=O)c1ccc(NC(=O)C(Cc2ccccc2)N2CC(=O)N(c3cc(Cl)ccc3-n3cc(Cl)nn3)CC2=O)cc1F (stereo not drawn) [Example 42, 4-(2-(4-(5-Chloro-2-(4-chloro-1H-1,2,3-triazol-1-yl)phenyl)-2,5-dioxopiperazin-1-yl)-3-phenylpropanamido)-2-fluoro-N-methylbenzamide] | – | 16.3
19 | [2H]C([2H])([2H])n1ccc(CC(C(=O)Nc2ccc3nn(C)cc3c2)N2CC(=O)N(c3cc(Cl)ccc3-n3cc(Cl)nn3)CC2=O)n1 (stereo not drawn) [Example 133, 2-(4-(5-chloro-2-(4-chloro-1H-1,2,3-triazol-1-yl)phenyl)-2,5-dioxopiperazin-1-yl)-N-(2-methyl-2H-indazol-5-yl)-3-(1-(methyl-d3)-1H-pyrazol-3-yl)propanamide] | – | 14.8
20 | CNC(=O)c1ccc(NC(=O)C(Cc2ccc(F)cc2)N2CC(=O)N(c3cc(Cl)ccc3-n3cc(Cl)nn3)CC2=O)cc1F (stereo not drawn) [Example 134, 4-(2-(4-(5-chloro-2-(4-chloro-1H-1,2,3-triazol-1-yl)phenyl)-2,5-dioxopiperazin-1-yl)-3-(4-fluorophenyl)propanamido)-2-fluoro-N-methylbenzamide] | – | 19.4
21 | O=C(Nc1ccc2ccnn2c1)C(Cc1ccccc1)N1CC(=O)N(c2cc(Cl)ccc2-n2cnnn2)CC1=O (stereo not drawn) [Example 22, 2-(4-(5-Chloro-2-(1H-tetrazol-1-yl)phenyl)-2,5-dioxopiperazin-1-yl)-3-phenyl-N-(pyrazolo[1.5-a]pyridin-6-yl)propanamide] | – | 16.0
